Data from patent US20190269129A1, “COMPOSITION CONTAINING 1,2-DIBROMO-2,4-DICYANOBUTANE (DBDCB) AND ZINC PYRITHIONE (ZPT)” (LANXESS Deutschland GmbH, priority 2014, published 2019).

Experiments:
Format in all cases: cell-based
Conditions in all cases: for Activity of the biocides determined 1 week after germ addition, week 1: week 1, polymer emulsion pH 6.5; for Activity of the biocides determined 1 week after germ addition, week 2: week 2, polymer emulsion pH 6.5; for Activity of the biocides determined 1 week after germ addition, week 3: week 3, polymer emulsion pH 6.5; for Activity of the biocides determined 1 week after germ addition, week 4: week 4, polymer emulsion pH 6.5; for Activity of the biocides determined 1 week after germ addition, week 5: week 5, polymer emulsion pH 6.5; for Activity of the biocides determined 1 week after germ addition, week 6: week 6, polymer emulsion pH 6.5
[1] = tested on: Molds: Acremonium strictum, Aspergillus niger and Geotrichum candidu; experiment: Microbiological stress test, preservation of a polymer emulsion: molds
Source text: (§1) The preserving effect of an inventive composition comprising DBDCB and ZPT in a polymer emulsion (acrylate-based, pH=6.5) was investigated using a microbiological stress test. The microbiological stress test examines the susceptibility of water-based systems to microbial attack and the effect of preservatives. To this end, the preservatives are incorporated in defined concentrations into the water-based systems. […] Having knowledge of the microorganism populations prevalent in polymer emulsions and dispersions the experiment employed a mixture of the following microorganism types for testing: Molds: Acremonium strictum, Aspergillus niger and Geotrichum candidu.

[2] = tested on: Yeasts: Candida albicans and Rhodotorula rubra; experiment: Microbiological stress test, preservation of a polymer emulsion: yeasts
Source text: as §1, with “Yeasts: Candida albicans” for “Molds: Acremonium strictum, Aspergillus niger”, “Rhodotorula rubra.” for “Geotrichum candidu.”

[3] = tested on: Bacteria: Escherichia coli, Pseudomonas aeruginosa and Staphylococcus aureus; experiment: Microbiological stress test, preservation of a polymer emulsion: bacteria
Source text: as §1, with “Bacteria: Escherichia coli, Pseudomonas aeruginosa” for “Molds: Acremonium strictum, Aspergillus niger”, “Staphylococcus aureus.” for “Geotrichum candidu.”

Question: What does the source list for `N#CCCC(Br)(C#N)CBr` (stereo not drawn) [DBDCB, 1,2-Dibromo-2,4-dicyanobutane]?
Answer: Activity of the biocides determined 1 week after germ addition, week 1 ([1]; 0.025 wt % biocide added): 0 (no reduction or only a minor reduction of the microbe level is observed (residual level of at least 10^5 bacteria/10^4 mold/yeast cells per g) (score of 0=poor)); Activity of the biocides determined 1 week after germ addition, week 2 ([1]; 0.025 wt % biocide added): 0 (no reduction or only a minor reduction of the microbe level is observed (residual level of at least 10^5 bacteria/10^4 mold/yeast cells per g) (score of 0=poor)); Activity of the biocides determined 1 week after germ addition, week 3 ([1]; 0.025 wt % biocide added): 0 (no reduction or only a minor reduction of the microbe level is observed (residual level of at least 10^5 bacteria/10^4 mold/yeast cells per g) (score of 0=poor)); Activity of the biocides determined 1 week after germ addition, week 4 ([1]; 0.025 wt % biocide added): 0 (no reduction or only a minor reduction of the microbe level is observed (residual level of at least 10^5 bacteria/10^4 mold/yeast cells per g) (score of 0=poor)); Activity of the biocides determined 1 week after germ addition, week 5 ([1]; 0.025 wt % biocide added): 0 (no reduction or only a minor reduction of the microbe level is observed (residual level of at least 10^5 bacteria/10^4 mold/yeast cells per g) (score of 0=poor)); Activity of the biocides determined 1 week after germ addition, week 6 ([1]; 0.025 wt % biocide added): 0 (no reduction or only a minor reduction of the microbe level is observed (residual level of at least 10^5 bacteria/10^4 mold/yeast cells per g) (score of 0=poor)); Activity of the biocides determined 1 week after germ addition, week 1 ([1]; 0.05 wt % biocide added): 0 (no reduction or only a minor reduction of the microbe level is observed (residual level of at least 10^5 bacteria/10^4 mold/yeast cells per g) (score of 0=poor)); Activity of the biocides determined 1 week after germ addition, week 2 ([1]; 0.05 wt % biocide added): 0 (no reduction or only a minor reduction of the microbe level is observed (residual level of at least 10^5 bacteria/10^4 mold/yeast cells per g) (score of 0=poor)); Activity of the biocides determined 1 week after germ addition, week 3 ([1]; 0.05 wt % biocide added): 0 (no reduction or only a minor reduction of the microbe level is observed (residual level of at least 10^5 bacteria/10^4 mold/yeast cells per g) (score of 0=poor)); Activity of the biocides determined 1 week after germ addition, week 4 ([1]; 0.05 wt % biocide added): 0 (no reduction or only a minor reduction of the microbe level is observed (residual level of at least 10^5 bacteria/10^4 mold/yeast cells per g) (score of 0=poor)); Activity of the biocides determined 1 week after germ addition, week 5 ([1]; 0.05 wt % biocide added): 0 (no reduction or only a minor reduction of the microbe level is observed (residual level of at least 10^5 bacteria/10^4 mold/yeast cells per g) (score of 0=poor)); Activity of the biocides determined 1 week after germ addition, week 6 ([1]; 0.05 wt % biocide added): 0 (no reduction or only a minor reduction of the microbe level is observed (residual level of at least 10^5 bacteria/10^4 mold/yeast cells per g) (score of 0=poor)); Activity of the biocides determined 1 week after germ addition, week 1 ([2]; 0.025 wt % biocide added): 0 (no reduction or only a minor reduction of the microbe level is observed (residual level of at least 10^5 bacteria/10^4 mold/yeast cells per g) (score of 0=poor)); Activity of the biocides determined 1 week after germ addition, week 2 ([2]; 0.025 wt % biocide added): 0 (no reduction or only a minor reduction of the microbe level is observed (residual level of at least 10^5 bacteria/10^4 mold/yeast cells per g) (score of 0=poor)); Activity of the biocides determined 1 week after germ addition, week 3 ([2]; 0.025 wt % biocide added): 0 (no reduction or only a minor reduction of the microbe level is observed (residual level of at least 10^5 bacteria/10^4 mold/yeast cells per g) (score of 0=poor)); Activity of the biocides determined 1 week after germ addition, week 4 ([2]; 0.025 wt % biocide added): 0 (no reduction or only a minor reduction of the microbe level is observed (residual level of at least 10^5 bacteria/10^4 mold/yeast cells per g) (score of 0=poor)); Activity of the biocides determined 1 week after germ addition, week 5 ([2]; 0.025 wt % biocide added): 0 (no reduction or only a minor reduction of the microbe level is observed (residual level of at least 10^5 bacteria/10^4 mold/yeast cells per g) (score of 0=poor)); Activity of the biocides determined 1 week after germ addition, week 6 ([2]; 0.025 wt % biocide added): 0 (no reduction or only a minor reduction of the microbe level is observed (residual level of at least 10^5 bacteria/10^4 mold/yeast cells per g) (score of 0=poor)); Activity of the biocides determined 1 week after germ addition, week 1 ([2]; 0.05 wt % biocide added): 0 (no reduction or only a minor reduction of the microbe level is observed (residual level of at least 10^5 bacteria/10^4 mold/yeast cells per g) (score of 0=poor)); Activity of the biocides determined 1 week after germ addition, week 2 ([2]; 0.05 wt % biocide added): 0 (no reduction or only a minor reduction of the microbe level is observed (residual level of at least 10^5 bacteria/10^4 mold/yeast cells per g) (score of 0=poor)); Activity of the biocides determined 1 week after germ addition, week 3 ([2]; 0.05 wt % biocide added): 0 (no reduction or only a minor reduction of the microbe level is observed (residual level of at least 10^5 bacteria/10^4 mold/yeast cells per g) (score of 0=poor)); Activity of the biocides determined 1 week after germ addition, week 4 ([2]; 0.05 wt % biocide added): 0 (no reduction or only a minor reduction of the microbe level is observed (residual level of at least 10^5 bacteria/10^4 mold/yeast cells per g) (score of 0=poor)); Activity of the biocides determined 1 week after germ addition, week 5 ([2]; 0.05 wt % biocide added): 0 (no reduction or only a minor reduction of the microbe level is observed (residual level of at least 10^5 bacteria/10^4 mold/yeast cells per g) (score of 0=poor)); Activity of the biocides determined 1 week after germ addition, week 6 ([2]; 0.05 wt % biocide added): 0 (no reduction or only a minor reduction of the microbe level is observed (residual level of at least 10^5 bacteria/10^4 mold/yeast cells per g) (score of 0=poor)); Activity of the biocides determined 1 week after germ addition, week 1 ([3]; 0.025 wt % biocide added): 0 (no reduction or only a minor reduction of the microbe level is observed (residual level of at least 10^5 bacteria/10^4 mold/yeast cells per g) (score of 0=poor)); Activity of the biocides determined 1 week after germ addition, week 2 ([3]; 0.025 wt % biocide added): 0 (no reduction or only a minor reduction of the microbe level is observed (residual level of at least 10^5 bacteria/10^4 mold/yeast cells per g) (score of 0=poor)); Activity of the biocides determined 1 week after germ addition, week 3 ([3]; 0.025 wt % biocide added): 0 (no reduction or only a minor reduction of the microbe level is observed (residual level of at least 10^5 bacteria/10^4 mold/yeast cells per g) (score of 0=poor)); Activity of the biocides determined 1 week after germ addition, week 4 ([3]; 0.025 wt % biocide added): 0 (no reduction or only a minor reduction of the microbe level is observed (residual level of at least 10^5 bacteria/10^4 mold/yeast cells per g) (score of 0=poor)); Activity of the biocides determined 1 week after germ addition, week 5 ([3]; 0.025 wt % biocide added): 0 (no reduction or only a minor reduction of the microbe level is observed (residual level of at least 10^5 bacteria/10^4 mold/yeast cells per g) (score of 0=poor)); Activity of the biocides determined 1 week after germ addition, week 6 ([3]; 0.025 wt % biocide added): 0 (no reduction or only a minor reduction of the microbe level is observed (residual level of at least 10^5 bacteria/10^4 mold/yeast cells per g) (score of 0=poor)); Activity of the biocides determined 1 week after germ addition, week 1 ([3]; 0.05 wt % biocide added): 0 (no reduction or only a minor reduction of the microbe level is observed (residual level of at least 10^5 bacteria/10^4 mold/yeast cells per g) (score of 0=poor)); Activity of the biocides determined 1 week after germ addition, week 2 ([3]; 0.05 wt % biocide added): 0 (no reduction or only a minor reduction of the microbe level is observed (residual level of at least 10^5 bacteria/10^4 mold/yeast cells per g) (score of 0=poor)); Activity of the biocides determined 1 week after germ addition, week 3 ([3]; 0.05 wt % biocide added): 0 (no reduction or only a minor reduction of the microbe level is observed (residual level of at least 10^5 bacteria/10^4 mold/yeast cells per g) (score of 0=poor)); Activity of the biocides determined 1 week after germ addition, week 4 ([3]; 0.05 wt % biocide added): 0 (no reduction or only a minor reduction of the microbe level is observed (residual level of at least 10^5 bacteria/10^4 mold/yeast cells per g) (score of 0=poor)); Activity of the biocides determined 1 week after germ addition, week 5 ([3]; 0.05 wt % biocide added): 0 (no reduction or only a minor reduction of the microbe level is observed (residual level of at least 10^5 bacteria/10^4 mold/yeast cells per g) (score of 0=poor)); Activity of the biocides determined 1 week after germ addition, week 6 ([3]; 0.05 wt % biocide added): 0 (no reduction or only a minor reduction of the microbe level is observed (residual level of at least 10^5 bacteria/10^4 mold/yeast cells per g) (score of 0=poor))
